In test [1] the target is pEGFR (Tyr1068) in PC-9 cells (Ex19Del) (Homo sapiens (Human), UniProt P00533, DEL746-750). Description: PC-9 pEGFR AlphaLISA assay. The test is classed as cell-based. The following applies: 4 hours incubation, p-EGFR (Tyr1068) AlphaLISA, read-out: Ext pEGFR_PC-9 Ex19Del IC50. The gist of the method: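 First, cells settled overnight in 10% FBS medium. Second, a 10-point, 4-fold series of test agents was applied for 4 h at 37° C. Third, lysates were probed with AlphaLISA acceptor and donor beads, incubated overnight in the dark. Last, IC50 was taken from the dose-response.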
A general note: In Alpha technology, singlet oxygen from a donor bead excites a nearby acceptor bead.

Test [2] deals with EGFR L858R (Homo sapiens (Human), UniProt P00533, L858R). Put plainly: Biochemical EGFR inhibition assay, EGFR L858R. The following applies: Caliper mobility shift; 1.0 mM ATP or ATP Km; read-out: Enz EGFR_L858R IC50.
In test [3] the target is EGFR (d746-750) (Homo sapiens (Human), UniProt P00533, DEL746-750). Put plainly: Biochemical EGFR inhibition assay, EGFR (d746-750). The following applies: Caliper mobility shift; 1.0 mM ATP or ATP Km; read-out: Enz EGFR_Exon19-del746-750 IC50.

By IC50 is commonly meant the concentration at which inhibition is half-maximal. Turning to `COc1cc2ncnc(-c3cn(C4CC4)nc3-c3ccccc3)c2nc1NC(=O)[C@@]12C[C@@H]1CN(C)C2` (single isomer, unassigned) [Example 406, (1S,5S)—N-(4-(1-cyclopropyl-3-phenyl-1H-pyrazol-4-yl)-7-methoxypyrido[3,2-d]pyrimidin-6-yl)-3-methyl-3-azabicyclo[3.1.0]hexane-1-carboxamide or (1R,5R)—N-(4-(1-cyclopropyl-3-phenyl-1H-pyrazol-4-yl)-7-methoxypyrido[3,2-d]pyrimidin-6-yl)-3-methyl-3-azabicyclo[3.1.0]hexane-1-carboxamide], the concentration for half-maximal inhibition (IC50) was determined as 0.9 nM in test [1], 1.2 nM in test [2] and 0.7 nM in test [3].
The like results for `COc1cc2ncnc(-c3cn(C)nc3-c3ccccc3)c2cc1OC(=O)N1CCO[C@H](C)[C@@H]1C` [Example 94, 7-methoxy-4-(1-methyl-3-phenyl-1H-pyrazol-4-yl)quinazolin-6-yl (2R,3S)-2,3-dimethylmorpholine-4-carboxylate] were, in that order, 11.3 nM, 6.4 nM and 3.2 nM.
The like results for `CCn1cc(-c2ncnc3cc(OC)c(N4CCOCC4)cc23)c(-c2ccccc2)n1` [Example 169, 4-(4-(1-ethyl-3-phenyl-1H-pyrazol-4-yl)-7-methoxyquinazolin-6-yl)morpholine] were, in that order, 1.9 nM, 1.7 nM and 0.9 nM.
For the compound “7-methoxy-6-(2-methyl-2H-indazol-4-yl)-4-(1-methyl-3-phenyl-1H-pyrazol-4-yl)pyrido[3,2-d]pyrimidine [Example 155]”, the IC50 in test [1] is 5.1 nM; in test [2] it was 7.3 nM; in test [3] it was 2 nM.
The matching figures for `COc1cc2ncnc(-c3cn(C)nc3-c3ccccc3)c2nc1-c1cccc2c1OCC(=O)N2` [Example 154, 8-(7-methoxy-4-(1-methyl-3-phenyl-1H-pyrazol-4-yl)pyrido[3,2-d]pyrimidin-6-yl)-2H-benzo[b][1,4]oxazin-3(4H)-one]: 13 nM, 3.8 nM and 1.1 nM.
Turning to `COc1cc2ncnc(-c3cn(C)nc3-c3ccccc3)c2nc1O[C@H](C)c1cn(C)nn1` [Example 43, (R)-7-methoxy-6-(1-(1-methyl-1H-1,2,3-triazol-4-yl)ethoxy)-4-(1-methyl-3-phenyl-1H-pyrazol-4-yl)pyrido[3,2-d]pyrimidine], the values for the IC50 in test [1], in test [2] and in test [3] were 1.9 nM, 1.4 nM and 0.8 nM, respectively.
On to `COc1cc2c(-c3cn(C)nc3-c3ccccc3)ncnc2cc1N1CC2(CN(C(C)=O)C2)C1` [Example 447, 1-(6-(6-methoxy-4-(1-methyl-3-phenyl-1H-pyrazol-4-yl)quinazolin-7-yl)-2,6-diazaspiro[3.3]heptan-2-yl)ethan-1-one], for which the IC50 turned out to be 1.6 nM in test [1], 1.6 nM in test [2] and 0.9 nM in test [3].
Turning to `COc1cc2ncnc(-c3cn(C)nc3-c3ccccc3)c2cc1NC(=O)c1ccnnc1` [Example 328, N-(7-methoxy-4-(1-methyl-3-phenyl-1H-pyrazol-4-yl)quinazolin-6-yl)pyridazine-4-carboxamide], the half-maximal inhibitory concentration (IC50) in test [1] turned out to be 4.5 nM; in test [2], 2.3 nM; in test [3], 1.1 nM.
On to `COc1cc2ncnc(-c3cn(C)nc3-c3ccccc3)c2cc1NC(=O)[C@]1(C)CCCO1` (single isomer, unassigned) [Example 258, (S)—N-(7-methoxy-4-(1-methyl-3-phenyl-1H-pyrazol-4-yl)quinazolin-6-yl)-2-methyltetrahydrofuran-2-carboxamide or (R)—N-(7-methoxy-4-(1-methyl-3-phenyl-1H-pyrazol-4-yl)quinazolin-6-yl)-2-methyltetrahydrofuran-2-carboxamide], for which the IC50 in test [1] was 4.2 nM; in test [2], 3.8 nM; in test [3], 0.9 nM.
For `CCC(=O)Nc1cc2c(-c3cn(C)nc3-c3ccccc3)ncnc2cc1-n1ccc(C)n1` [Example 450, N-(7-(3-methyl-1H-pyrazol-1-yl)-4-(1-methyl-3-phenyl-1H-pyrazol-4-yl)quinazolin-6-yl)propionamide], the IC50 in test [1] stood at 1 nM; in test [2], 1.2 nM; in test [3] it was 0.7 nM.
With `CN1CCC(n2cc(-c3ccc4c(-c5cn(C)nc5-c5ccccc5)ncnc4c3)cn2)CC1` [Example 438, 4-(1-methyl-3-phenyl-1H-pyrazol-4-yl)-7-(1-(1-methylpiperidin-4-yl)-1H-pyrazol-4-yl)quinazoline], the IC50 in test [1] worked out at 0.3 nM; in test [2] it was 1.2 nM; in test [3], 0.8 nM.
For the compound `COc1cc2ncnc(-c3cn(C)nc3-c3ccccc3)c2cc1NC(=O)N1CCO[C@@H]2C[C@@H]21` (stereo in doubt) [Example 185, N-[7-methoxy-4-(1-methyl-3-phenyl-1H-pyrazol-4-yl)quinazolin-6-yl]-2-oxa-5-azabicyclo[4.1.0]heptane-5-carboxamide], the values for the IC50 in test [1], in test [2] and in test [3] were 3.1 nM, 2.1 nM and 1.3 nM, respectively.
The like results for `COc1cc2ncnc(-c3cn(CC(F)F)nc3-c3ccccc3)c2cc1NC(=O)c1ccns1` [Example 272, N-(4-(1-(2,2-difluoroethyl)-3-phenyl-1H-pyrazol-4-yl)-7-methoxyquinazolin-6-yl)isothiazole-5-carboxamide] were, in that order, 0.5 nM, 1.2 nM and 1 nM.
Turning to `COc1cc2ncnc(-c3cn(C)nc3-c3ccccc3)c2cc1O[C@H]1CCOC1` [Example 13, (S)-7-methoxy-4-(1-methyl-3-phenyl-1H-pyrazol-4-yl)-6-((tetrahydrofuran-3-yl)oxy)quinazoline], the values for the IC50 in test [1], in test [2] and in test [3] were 6.2 nM, 4 nM and 1.9 nM, respectively.
As for `COc1cc2ncnc(-c3cn(C)nc3-c3ccccc3)c2cc1OC(=O)N1[C@@H](C)CNC[C@@H]1C` [Example 88, 7-methoxy-4-(1-methyl-3-phenyl-1H-pyrazol-4-yl)quinazolin-6-yl (2S,6S)-2,6-dimethylpiperazine-1-carboxylate], the values for the concentration for half-maximal inhibition (IC50) in test [1], in test [2] and in test [3] were 7.5 nM, 3.2 nM and 1.9 nM, respectively.
On to `COc1cc2ncnc(-c3cn(CC(F)F)nc3-c3ccccc3)c2cc1C1(O)CC1` [Example 126, 1-(4-(1-(2,2-difluoroethyl)-3-phenyl-1H-pyrazol-4-yl)-7-methoxyquinazolin-6-yl)cyclopropan-1-ol], for which the IC50 in test [1] came out at 3.2 nM; in test [2], 1.9 nM; in test [3] it was 0.9 nM.
On to `C[C@@H](O)c1cc2c(-c3cn(CC(F)F)nc3-c3ccccc3)ncnc2cc1O[C@H]1CCOC1` (single isomer, unassigned) [Example 118, (R)-1-(4-(1-(2,2-difluoroethyl)-3-phenyl-1H-pyrazol-4-yl)-7-(((S)-tetrahydrofuran-3-yl)oxy)quinazolin-6-yl)ethan-1-ol or (S)-1-(4-(1-(2,2-difluoroethyl)-3-phenyl-1H-pyrazol-4-yl)-7-(((S)-tetrahydrofuran-3-yl)oxy)quinazolin-6-yl)ethan-1-ol], for which the half-maximal inhibitory concentration (IC50) was 6 nM in test [1], 3.9 nM in test [2] and 2.4 nM in test [3].
The matching figures for `COc1cc2ncnc(-c3cn(C)nc3-c3ccccc3)c2nc1NC(=O)[C@@]12COC[C@@H]1C2` (single isomer, unassigned) [Example 431, (1R,5R)—N-(7-methoxy-4-(1-methyl-3-phenyl-1H-pyrazol-4-yl)pyrido[3,2-d]pyrimidin-6-yl)-3-oxabicyclo[3.1.0]hexane-1-carboxamide or (1S,5S)—N-(7-methoxy-4-(1-methyl-3-phenyl-1H-pyrazol-4-yl)pyrido[3,2-d]pyrimidin-6-yl)-3-oxabicyclo[3.1.0]hexane-1-carboxamide]: 1.2 nM, 1.4 nM and 0.6 nM.
In the case of `COc1cc2ncnc(-c3cn(C)nc3-c3ccccc3)c2nc1OC(C)c1cn(C)nn1` (stereo not drawn) [Example 34, 7-methoxy-6-(1-(1-methyl-1H-1,2,3-triazol-4-yl)ethoxy)-4-(1-methyl-3-phenyl-1H-pyrazol-4-yl)pyrido[3,2-d]pyrimidine], the half-inhibitory concentration (IC50) is 2.5 nM in test [1], 6.1 nM in test [2] and 1.6 nM in test [3].
For `COc1cc2ncnc(-c3cn(C)nc3-c3ccccc3)c2cc1NC(=O)c1ccccc1F` [Example 198, 2-fluoro-N-(7-methoxy-4-(1-methyl-3-phenyl-1H-pyrazol-4-yl)quinazolin-6-yl)benzamide], the values for the IC50 in test [1], in test [2] and in test [3] were 1.1 nM, 1.3 nM and 0.8 nM, respectively.
Regarding `COc1cc2ncnc(-c3cn(CCO)nc3-c3ccccc3)c2nc1NC(=O)c1cnn(C(F)(F)F)c1` [Example 415, N-(4-(1-(2-hydroxyethyl)-3-phenyl-1H-pyrazol-4-yl)-7-methoxypyrido[3,2-d]pyrimidin-6-yl)-1-(trifluoromethyl)-1H-pyrazole-4-carboxamide], the IC50 is 7.8 nM in test [1], 3 nM in test [2] and 1.5 nM in test [3].
Turning to `COc1cc2ncnc(-c3cn(C)nc3-c3ccc(F)cc3)c2cc1NC(=O)C1CC(F)(F)C1` [Example 212, 3,3-difluoro-N-(4-(3-(4-fluorophenyl)-1-methyl-1H-pyrazol-4-yl)-7-methoxyquinazolin-6-yl)cyclobutane-1-carboxamide], the figures for the IC50 in test [1], in test [2] and in test [3] were 1 nM, 0.4 nM and 0.2 nM, respectively.
